# Source: patent US7109193B2, “Tricyclic diazepines tocolytic oxytocin receptor antagonists” (Wyeth, priority 2001, dated 2006)
# Molecular target: T1, human vasopressin V2 receptor subtype (Homo sapiens, UniProt P30518)
# T1 construct: host or cells: CHO cells (pZeoSV vector)
# Experiment: Vasopressin binding in Chinese Hamster Ovary cell membranes expressing human vasopressin V2 subtype receptors
# Settings: 100 nM, CHO cell membranes, [3H]arginine vasopressin, values without parentheses
# Summary of the method: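 Radioligand displacement on membranes from CHO cells stably expressing human V2 receptor, 25 to 50 μg protein/well, in 50 mM Tris-HCl pH 7.4 with MgCl2, BSA and protease inhibitors. [^3H]arginine vasopressin (8 nM working solution) incubated 60 min at room temperature; bound label measured by filtration and scintillation counting.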
# T1 sequence (P30518 whole entry): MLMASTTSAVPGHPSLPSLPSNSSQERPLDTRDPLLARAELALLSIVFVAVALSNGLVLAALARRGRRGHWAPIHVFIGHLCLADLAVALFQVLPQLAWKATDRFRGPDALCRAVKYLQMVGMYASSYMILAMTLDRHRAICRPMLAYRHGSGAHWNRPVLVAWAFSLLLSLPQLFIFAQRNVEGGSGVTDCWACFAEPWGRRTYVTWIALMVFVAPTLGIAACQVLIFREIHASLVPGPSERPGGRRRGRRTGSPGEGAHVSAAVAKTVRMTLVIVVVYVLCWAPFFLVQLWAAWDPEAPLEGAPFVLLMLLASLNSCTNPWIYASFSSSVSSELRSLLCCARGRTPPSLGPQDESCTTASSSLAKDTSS
row,SMILES,inhibition at 0.1 µM [%]
1,"Cc1ccccc1-c1ccc(C(=O)N2Cc3ccc(C(=O)N(C)CCCN(C)C)n3Cc3ccccc32)cc1 [Example 104, N-[3-(Dimethylamino)propyl]-N-methyl-10-[(2′-methyl[1,1′-biphenyl]-4-yl)carbonyl]-10,11-dihydro-5H-pyrrolo[2,1-c][1,4]benzodiazepine-3-carboxamide]",20
2,"COc1cc(C(=O)N2Cc3ccc(C(=O)N(C)CCN(C)C)n3Cc3ccccc32)ccc1-c1ccccc1C [Example 92, N-[2-(Dimethylamino)ethyl]-10-[(2-methoxy-2′-methyl[1,1′-biphenyl]-4-yl)carbonyl]-N-methyl-10,11-dihydro-5H-pyrrolo[2,1-c][1,4]benzodiazepine-3-carboxamide]",20
3,"Cc1ccccc1-c1ccc(C(=O)N2Cc3ccc(C(=O)N(C)CCCN(C)C)n3Cc3ccccc32)cc1C [Example 101, N-[3-(Dimethylamino)propyl]-10-[(2,2′-dimethyl[1,1′-biphenyl]-4-yl)carbonyl]-N-methyl-10,11-dihydro-5H-pyrrolo[2,1-c][1,4]benzodiazepine-3-carboxamide]",7
4,"COc1cccc(-c2ccc(C(=O)N3Cc4ccc(C(=O)N(C)CCCN(C)C)n4Cc4ccccc43)cc2C)c1 [Example 102, N-[3-(Dimethylamino)propyl]-10-[(3′-methoxy-2-methyl[1,1′-biphenyl]-4-yl)carbonyl]-N-methyl-10,11-dihydro-5H-pyrrolo[2,1-c][1,4]benzodiazepine-3-carboxamide]",18
5,"COc1cccc(-c2cc(OC)c(C(=O)N3Cc4ccc(C(=O)NCCCN(C)C)n4Cc4ccccc43)cc2Cl)c1 [Example 79, 10-[(6-Chloro-3,3′-dimethoxy[1,1′-biphenyl]-4-yl)carbonyl]-N-[3-(dimethylamino)propyl]-10,11-dihydro-5H-pyrrolo[2,1-c][1,4]benzodiazepine-3-carboxamide]",7
6,"COc1cc(C(=O)N2Cc3ccc(C(=O)NCCCN(C)C)n3Cc3ccccc32)ccc1-c1cccc2ccccc12 [Example 80, N-[3-(Dimethylamino)propyl]-10-[3-methoxy-4-(1-naphthyl)benzoyl]-10,11-dihydro-5H-pyrrolo[2,1-c][1,4]benzodiazepine-3-carboxamide]",43
7,"CN(C)CCCNC(=O)c1ccc2n1Cc1ccccc1N(C(=O)c1ccc(-c3cccc4ccccc34)cc1Cl)C2 [Example 83, 10-[2-Chloro-4-(1-naphthyl)benzoyl]-N-[3-(dimethylamino)propyl]-10,11-dihydro-5H-pyrrolo[2,1-c][1,4]benzodiazepine-3-carboxamide]",18
8,"CN(C)CCN(C)C(=O)c1ccc2n1Cc1ccccc1N(C(=O)c1ccc(-c3cccc4ccccc34)cc1Cl)C2 [Example 96, 10-[2-Chloro-4-(1-naphthyl)benzoyl]-N-[2-(dimethylamino)ethyl]-N-methyl-10,11-dihydro-5H-pyrrolo[2,1-c][1,4]benzodiazepine-3-carboxamide]",24

# Same assay, conditions: CHO cell membranes, [3H]arginine vasopressin, values in parentheses
row,SMILES,IC50 [nM]
1,"COc1ccccc1-c1ccc(C(=O)N2Cc3ccc(C(=O)N4CCCN(C)CC4)n3Cc3ccccc32)cc1 [Example 61, {10-[(2′-Methoxy[1,1′-biphenyl]-4-yl)carbonyl]-10,11-dihydro-5H-pyrrolo[2,1-c][1,4]benzodiazepin-3-yl}(4-methyl-1,4-diazepan-1-yl)methanone]",745
2,"C=CCN1CCN(C(=O)c2ccc3n2Cc2ccccc2N(C(=O)c2ccc(-c4ccccc4OC)cc2)C3)CC1 [Example 221, (4-Allyl-1-piperazinyl){10-[(2′-methoxy[1,1′-biphenyl]4-yl)carbonyl]-10,11-dihydro-5H -pyrrolo[2,1-c][1,4]benzodiazepin-3-yl}methanone]",833
3,"COc1cc(-c2ccccc2C)c(Cl)cc1C(=O)N1Cc2ccc(C(=O)N(C)CCCN(C)C)n2Cc2ccccc21 [Example 98, 10-[(6-Chloro-3-methoxy-2′-methyl[1,1′-biphenyl]-4-yl)carbonyl]-N-[3-(dimethylamino)propyl]-N-methyl-10,11-dihydro-5H-pyrrolo[2,1-c][1,4]benzodiazepine-3-carboxamide]",1030
4,"COc1cccc(-c2cc(OC)c(C(=O)N3Cc4ccc(C(=O)N(C)CCCN(C)C)n4Cc4ccccc43)cc2Cl)c1 [Example 99, 10-[(6-Chloro-3,3′-dimethoxy[1,1′-biphenyl]-4-yl)carbonyl]-N-[3-(dimethylamino)propyl]-N-methyl-10,11-dihydro-5H-pyrrolo[2,1-c][1,4]benzodiazepine-3-carboxamide]",1330
5,"COc1cc(-c2ccccc2C)c(Cl)cc1C(=O)N1Cc2ccc(C(=O)N(C)CCN(C)C)n2Cc2ccccc21 [Example 86, 10-[(6-Chloro-3-methoxy-2′-methyl[1,1′-biphenyl]-4-yl)carbonyl]-N-[2-(dimethylamino)ethyl]-N-methyl-10,11-dihydro-5H-pyrrolo[2,1-c][1,4]benzodiazepine-3-carboxamide]",1700
6,"COc1ccccc1-c1ccc(C(=O)N2Cc3ccc(C(=O)N4CCC(N5CCCCC5)CC4)n3Cc3ccccc32)cc1 [Example 111, {10-[(2′-Methoxy[1,1′-biphenyl]-4-yl)carbonyl]-10,11-dihydro-5H-pyrrolo[2,1-c][1,4]benzodiazepin-3-yl}[4-(1-piperidinyl)-1-piperidinyl]methanone]",772
7,"Cc1cc(C(=O)N2Cc3ccc(C(=O)N(C)CCCN(C)C)n3Cc3ccccc32)ccc1-c1ccccc1C(F)(F)F [Example 97, N-[3-(Dimethylamino)propyl]-N-methyl-10-{[2-methyl-2′-(trifluoromethyl)[1,1′-biphenyl]-4-yl]carbonyl}-10,11-dihydro-5H-pyrrolo[2,1-c][1,4]benzodiazepine-3-carboxamide]",2000
8,"Cc1cc(C(=O)N2Cc3ccc(C(=O)N4CCCN(C)CC4)n3Cc3ccccc32)ccc1-c1ccccc1C(F)(F)F [Example 59, (4-Methyl-1,4-diazepan-1-yl)(10-{[2-methyl-2′-(trifluoromethyl)[1,1′-biphenyl]-4-yl]carbonyl}-10,11-dihydro-5H-pyrrolo[2,1-c][1,4]benzodiazepin-3-yl)methanone]",2310
9,"COc1ccccc1-c1ccc(C(=O)N2Cc3ccc(C(=O)N4CCN(CCN(C)C)CC4)n3Cc3ccccc32)cc1C [Example 195, {4-[2-(Dimethylamino)ethyl]-1-piperazinyl}{10-[(2′-methoxy-2-methyl[1,1′-biphenyl]-4-yl)carbonyl]-10,11-dihydro-5H-pyrrolo[2,1-c][1,4]benzodiazepin-3-yl}methanone]",298
10,"COc1cc(-c2ccccc2C)c(Cl)cc1C(=O)N1Cc2ccc(C(=O)N3CCN(C)CC3)n2Cc2ccccc21 [Example 47, {10-[(6-Chloro-3-methoxy-2′-methyl[1,1′-biphenyl]-4-yl)carbonyl]-10,11-dihydro-5H-pyrrolo[2,1-c][1,4]benzodiazepin-3-yl}(4-methyl-1-piperazinyl)methanone]",722
11,"COc1cc(-c2ccccc2C)c(Cl)cc1C(=O)N1Cc2ccc(C(=O)N3CCC(N4CCCC4)CC3)n2Cc2ccccc21 [Example 136, {10-[(6-Chloro-3-methoxy-2′-methyl[1,1′-biphenyl]-4-yl)carbonyl]-10,11-dihydro-5H-pyrrolo[2,1-c][1,4]benzodiazepin-3-yl}[4-(1-pyrrolidinyl)-1-piperidinyl]methanone]",597
